Assay results taken from patent US20090005659A1, “Tissue Ablation by Shear Force for Sampling Biological Fluids and Delivering Active Agents” (priority 2000, published 2009).
“And” between values parts separate entries of the source, which are not always exact repeats. Equal entries are not always repeated.

Assays:
female Yorkshire pigs [1] = assay: Transdermal delivery of insulin by passive diffusion following shear perforation of the skin; format: in vivo, pig
Procedure: Two female Yorkshire pigs of the same body weight range as those in Example 2 were immobilized with anesthetics. The test site on the side of the chest was prepared by clipping lightly off the hair and cleaning with an alcohol wipe. Special care was taken not to damage the skin. Shear perforation of the pig skin was performed with a Remington shaver (Remington Microscreen 1®, Remington, Bridgeport, Conn., USA) by pressing its screen firmly on the skin for about 1 second. This procedure was repeated at an adjacent skin site until 10 cm^2 of the skin was shear-perforated. Only slight erythema was observed on the test site. A drug reservoir patch made of silicone rubber (Silastic® Sheet, Medical Grade, Dow Corning Corp., Midland, Mich., USA) was affixed to the test skin with silicone adhesive (Secure® Adhesive, BT-401, Factor II, Inc., Lakeside, Ariz., USA). […] The thickness of the drug reservoir was 0.5 mm. An insulin solution (0.5 ml, Regular Iletin® II, Insulin Injection, USP, Purified Pork, Eli Lilly and Company, Indianapolis, Ind., USA) was placed into the drug reservoir which covered the shear-perforated skin to allow insulin molecules to enter the pig body through the pores on the stratum corneum driven by insulin concentration gradient. Transdermal insulin delivery was conducted in this way for 50 minutes. Insulin delivery was then terminated by removing the insulin patch. Blood samples were taken from the pigs prior to, during, and after transdermal insulin delivery for determination of blood glucose and insulin concentrations.

female Yorkshire pigs [2] = assay: Subcutaneous injection of insulin (control experiment): blood glucose and plasma insulin profiles; format: in vivo, pig; conditions: four pigs
From the text: The subcutaneous administration of insulin provides a dose response to which a comparative measure of transdermally delivered insulin can be made. An insulin dose of 5 IU insulin (Regular Iletin® II, Insulin Injection, USP, Purified Pork, Eli Lilly and Company, Indianapolis, Ind., USA) was subcutaneously injected in the rear mid-ventral area of each of four female Yorkshire pigs (weight: 22-26 kg) with a 1 cc Sub-Q Precision Glide® Needle (Becton-Dickinson and Company, Franklin Lakes, N.J., USA).
As the insulin concentrations went back to its basal concentration (FIG. 5b), the blood glucose concentrations also were gradually returned toward its pre-insulin injection level (FIG. 5a).

[3] = test system: intact skin of human and swine; assay: Penetration of insulin into intact skin (own experiment, result not shown); format: in vivo; conditions: no shear perforation
From the text: The stratum corneum is recognized as the primary barrier to percutaneous absorption of drug applied to the skin surface. The densely structured outmost skin layer consisting of flattened and keratinized dead skin cells provides a formidable permeation barrier to most small and virtually all large compounds. […] Our own experiment confirmed this (result not shown). This example investigates in vivo transdermal delivery of insulin into swine following application of shear perforation to remove the stratum corneum barrier at the test site.

pigs = assay: Swine glucose monitoring study: subcutaneous fast-acting insulin, blood glucose; format: in vivo, pig; conditions: 2 IU subcutaneous, four pigs
Procedure: A swine study was conducted for glucose measurements in both capillary blood and ISF extracted from the micropores generated by the shear perforation procedure as described in Example 3. Briefly, subcutaneous injections of fast-acting insulin (2 IU, Regular Iletin® II, U-100, Pork, Eli Lilly, Indianapolis, Ind.) were administered to four pigs. […] Glucose changes in the blood were monitored periodically using One Touch® Basic glucose meter (LifeScan, Inc., Milpitas, Calif.) on blood samples from the ear vein. ISF samples were obtained by application of a weak suction to the micropores on the skin with an Asoivenin® suction device (ASPIR, Sannois, France). The ISF samples collected throughout the whole experiment were tested for glucose using both a FastTake® and One Touch® Basic glucose meter blood glucose meters (LifeScan, Inc., Milpitas, Calif.) as wells as an YSI glucose analyzer (Model 2700 Select Biochemistry Analyzer, YSI Inc., Yellow Springs, Ohio). A calibration procedure was conducted for the two home-use glucose meters (i.e., the One Touch® and FastTake® meters) against the YSI glucose analyzer using aqueous glucose solutions of various concentrations.

insulin was tested, and the blood glucose (female Yorkshire pigs [1]; 0.5 ml insulin solution patch over 10 cm^2 shear-perforated skin, 50 minutes, two pigs, FIG. 6a) was “Drastic reduction in the blood glucose”, the “time for blood glucose concentrations to return to a near normal level” value (female Yorkshire pigs [1]; transdermal insulin over shear-perforated skin, 50 minutes delivery, two pigs) was “about 5 hours” and the “peak plasma insulin concentrations” value (female Yorkshire pigs [1]; transdermal, shear-perforated skin 10 cm^2, one value per pig, FIG. 6b) was 50 μIU/ml and 90 μIU/ml. The “time of peak plasma insulin concentration” value (female Yorkshire pigs [1]; transdermal, shear-perforated skin, peak at the end of delivery) was 50 min, the peak insulin concentrations (female Yorkshire pigs [2]; 5 IU insulin subcutaneous injection, plasma, FIG. 5b) was 31-55 μIU/ml and the blood glucose concentration (female Yorkshire pigs [2]; 5 IU insulin subcutaneous, FIG. 5a) was “rapid reduction in blood glucose concentration”. For the same substance, the “penetration into intact skin” value [3] was “cannot penetrate into the intact skin” and the blood glucose concentration (pigs) was “significant reduction in the blood glucose concentration”.
